The values that follow come from PMC7385556 (ACS chemical biology, 2020).

Several values for one entry are separate records, joined by “and”; a condition that tells them apart may be missing. Equal values may be shown once.

In the assay the test system is Mtb H37Rv mc^2 6230. Put plainly: MIC of compounds alone against Mtb H37Rv mc^2 6230. Type of assay: cell-based, Mycobacterium tuberculosis. Conditions: compound alone, absence of KAN.

In the case of `NC[C@H]1O[C@H](O[C@H]2[C@H](O)[C@@H](O[C@H]3O[C@H](CO)[C@@H](O)[C@H](N)[C@H]3O)[C@H](N)C[C@@H]2N)[C@H](O)[C@@H](O)[C@@H]1O` [KAN, kanamycin], the “H37Rv mc^2 6230 MIC” value was <1 μg/mL and <1.72 μM.
